In patent US6737383B1, “Herbicidal oxadiazolidines” (priority 1999, dated 2004):

Key:
[1] = system: giant foxtail; assay: Test B pre/postemergence giant foxtail; type: in vivo, Setaria faberii
Procedure, shortened: (§1)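 Test chemicals in a non-phytotoxic solvent mixture with surfactant were sprayed preemergence onto planted seeds and postemergence onto plants 2 to 18 cm tall (1- to 4-leaf stage). After twelve to sixteen days in a greenhouse, injury was visually rated against untreated controls from 0 (no effect) to 10 (complete control).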

[2] = system: corn; assay: Test B pre/postemergence corn; type: in vivo, Zea mays
Procedure, shortened: as §1

[3] = system: velvetleaf; assay: Test B pre/postemergence velvetleaf; type: in vivo, Abutilon theophrasti
Procedure, shortened: as §1

[4] = system: wheat; assay: Test B pre/postemergence wheat; type: in vivo, Triticum aestivum
Procedure, shortened: as §1

[5] = system: rice; assay: Test B flood test rice; type: in vivo, Oryza sativa
Procedure, shortened: (§2)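 Flood test on plants grown to the 2-leaf stage; treated plants kept in greenhouse twelve to sixteen days, then visually rated against controls on a 0 (no effect) to 10 (complete control) scale.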

[6] = system: cocklebur; assay: Test B pre/postemergence cocklebur; type: in vivo, Xanthium strumarium
Procedure, shortened: as §1

[7] = system: morningglory; assay: Test B pre/postemergence morningglory; type: in vivo, Ipomoea hederacea
Procedure, shortened: as §1

[8] = system: wild oat; assay: Test B pre/postemergence wild oat; type: in vivo, Avena fatua
Procedure, shortened: as §1

[9] = system: blackgrass; assay: Test B pre/postemergence blackgrass; type: in vivo, Alopecurus myosuroides
Procedure, shortened: as §1

[10] = system: soybean; assay: Test B pre/postemergence soybean; type: in vivo, Glycine max
Procedure, shortened: as §1

[11] = system: pigweed; assay: Test B pre/postemergence pigweed; type: in vivo, Amaranthus retroflexus
Procedure, shortened: as §1

[12] = system: bedstraw; assay: Test B pre/postemergence bedstraw; type: in vivo, Galium aparine
Procedure, shortened: as §1

[13] = system: surinam grass; assay: Test B pre/postemergence surinam grass; type: in vivo, Brachiaria decumbens
Procedure, shortened: as §1

[14] = system: smallflower flatsedge; assay: Test B flood test smallflower flatsedge; type: in vivo, Cyperus difformis
Procedure, shortened: as §2

[15] = system: rape; assay: Test B pre/postemergence rape; type: in vivo, Brassica napus
Procedure, shortened: as §1

[16] = system: sugar beet; assay: Test B pre/postemergence sugar beet; type: in vivo, Beta vulgaris
Procedure, shortened: as §1

[17] = Preemergence, Rate 62 g/ha, scale of 0 to 10 where 0 is no effect and 10 is complete control
[18] = Preemergence, Rate 125 g/ha, 0 is no effect, 10 is complete control
[19] = Preemergence, Rate 250 g/ha, scale 0 to 10, 0 is no effect, 10 is complete control
[20] = Preemergence, Rate 500 g/ha, scale of 0 to 10 where 0 is no effect and 10 is complete control
[21] = Rate 62 g/ha, Postemergence, scale of 0 to 10 where 0 is no effect and 10 is complete control
[22] = Rate 125 g/ha, Postemergence, scale 0 to 10
[23] = Rate 500 g/ha, Postemergence, scale 0 to 10
[24] = Rate 62 g/ha, headed Pre-emergence (flood test species), scale 0 to 10 (0 no effect, 10 complete control)
[25] = Rate 125 g/ha, Pre-emergence, flood test species, scale 0 to 10 where 0 is no effect and 10 is complete control
[26] = Rate 250 g/ha, Pre-emergence, flood-test species, scale 0 to 10, 0 is no effect, 10 is complete control

Cc1ccccc1-n1c(=O)on(C(=O)N(c2ccc(S(C)(=O)=O)cc2)C(C)C)c1=O [Compound 203]
0: Giant foxtail plant response rating [1, 17] | Giant foxtail plant response rating (0 to 10 scale) [1, 18] | Giant foxtail plant response rating [1, 19] | Plant response rating, Giant foxtail [1, 20] | Giant foxtail plant response rating [1, 21] | Giant foxtail plant response rating [1, 22] | Plant response rating (0 to 10; 0 is no effect, 10 is complete control), Giant foxtail ([1]; Rate 250 g/ha, Postemergence) | Giant foxtail plant response rating [1, 23] | Corn plant response rating [2, 17] | Corn plant response rating (0 to 10 scale) [2, 18] | Corn plant response rating [2, 19] | Plant response rating, Corn [2, 20] | Corn plant response rating [2, 21] | Corn plant response rating [2, 22] | Plant response rating (0 to 10; 0 is no effect, 10 is complete control), Corn ([2]; Rate 250 g/ha, Postemergence) | Corn plant response rating [2, 23] | Velvetleaf plant response rating [3, 17] | Velvetleaf plant response rating [3, 19] | Plant response rating, Velvetleaf [3, 20] | Velvetleaf plant response rating [3, 21] | Velvetleaf plant response rating [3, 22] | Plant response rating (0 to 10; 0 is no effect, 10 is complete control), Velvetleaf ([3]; Rate 250 g/ha, Postemergence) | Wheat plant response rating [4, 17] | Wheat plant response rating [4, 19] | Plant response rating, Wheat [4, 20] | Wheat plant response rating [4, 21] | Wheat plant response rating [4, 22] | Plant response rating (0 to 10; 0 is no effect, 10 is complete control), Wheat ([4]; Rate 250 g/ha, Postemergence) | Rice plant response rating [5, 24] | Rice plant response rating [5, 25] | Rice plant response rating [5, 26] | Plant response rating, Rice ([5]; Rate 500 g/ha, headed Pre-emergence (flood test species), scale 0 to 10 (0 no effect, 10 complete control)) | Cocklebur plant response rating [6, 17] | Cocklebur plant response rating (0 to 10 scale) [6, 18] | Cocklebur plant response rating [6, 19] | Plant response rating, Cocklebur [6, 20] | Cocklebur plant response rating [6, 21] | Cocklebur plant response rating [6, 22] | Plant response rating (0 to 10; 0 is no effect, 10 is complete control), Cocklebur ([6]; Rate 250 g/ha, Postemergence) | Cocklebur plant response rating [6, 23] | Morningglory plant response rating [7, 17] | Morningglory plant response rating (0 to 10 scale) [7, 18] | Morningglory plant response rating [7, 19] | Plant response rating, Morningglory [7, 20] | Morningglory plant response rating [7, 21] | Morningglory plant response rating [7, 22] | Plant response rating (0 to 10; 0 is no effect, 10 is complete control), Morningglory ([7]; Rate 250 g/ha, Postemergence) | Morningglory plant response rating [7, 23] | Wild oats plant response rating [8, 17] | Wild oats plant response rating [8, 19] | Plant response rating, Wild oats [8, 20] | Wild oats plant response rating [8, 21] | Wild oats plant response rating [8, 22] | Plant response rating (0 to 10; 0 is no effect, 10 is complete control), Wild oats ([8]; Rate 250 g/ha, Postemergence) | Blackgrass plant response rating [9, 17] | Blackgrass plant response rating (0 to 10 scale) [9, 18] | Blackgrass plant response rating [9, 19] | Plant response rating, Blackgrass [9, 20] | Blackgrass plant response rating [9, 21] | Blackgrass plant response rating [9, 22] | Plant response rating (0 to 10; 0 is no effect, 10 is complete control), Blackgrass ([9]; Rate 250 g/ha, Postemergence) | Blackgrass plant response rating [9, 23] | Soybean plant response rating [10, 17] | Soybean plant response rating (0 to 10 scale) [10, 18] | Soybean plant response rating [10, 19] | Plant response rating, Soybean [10, 20] | Soybean plant response rating [10, 21] | Soybean plant response rating [10, 22] | Plant response rating (0 to 10; 0 is no effect, 10 is complete control), Soybean ([10]; Rate 250 g/ha, Postemergence) | Soybean plant response rating [10, 23] | Redroot pigweed plant response rating [11, 17] | Redroot pigweed plant response rating (0 to 10 scale) [11, 18] | Redroot pigweed plant response rating [11, 19] | Plant response rating, Redroot pigweed [11, 20] | Redroot pigweed plant response rating [11, 21] | Redroot pigweed plant response rating [11, 22] | Plant response rating (0 to 10; 0 is no effect, 10 is complete control), Redroot pigweed ([11]; Rate 250 g/ha, Postemergence) | Redroot pigweed plant response rating [11, 23] | Bedstraw plant response rating [12, 17] | Bedstraw plant response rating (0 to 10 scale) [12, 18] | Bedstraw plant response rating [12, 19] | Plant response rating, Bedstraw [12, 20] | Bedstraw plant response rating [12, 21] | Bedstraw plant response rating [12, 22] | Plant response rating (0 to 10; 0 is no effect, 10 is complete control), Bedstraw ([12]; Rate 250 g/ha, Postemergence) | Bedstraw plant response rating [12, 23] | B. signalgrass plant response rating [13, 17] | B. signalgrass plant response rating (0 to 10 scale) [13, 18] | B. signalgrass plant response rating [13, 19] | Plant response rating, B. signalgrass [13, 20] | B. signalgrass plant response rating [13, 21] | B. signalgrass plant response rating ([13]; Rate 125 g/ha, Postemergence, scale 0 (no effect) to 10 (complete control)) | Plant response rating, B. signalgrass ([13]; Rate 250 g/ha, Postemergence, scale 0 to 10, 0 is no effect, 10 is complete control) | B. signalgrass plant response rating ([13]; Rate 500 g/ha, Postemergence, scale 0 to 10, 0 no effect, 10 complete control) | S. Flatsedge plant response rating [14, 24] | S. Flatsedge plant response rating [14, 25] | S. Flatsedge plant response rating [14, 26] | S. Flatsedge plant response rating ([14]; Rate 500 g/ha, Pre-emergence, flood test species, scale 0 to 10 (0 no effect, 10 complete control)) | Rape plant response rating [15, 17] | Rape plant response rating (0 to 10 scale) [15, 18] | Rape plant response rating [15, 19] | Plant response rating, Rape [15, 20] | Rape plant response rating [15, 21] | Rape plant response rating [15, 22] | Plant response rating (0 to 10; 0 is no effect, 10 is complete control), Rape ([15]; Rate 250 g/ha, Postemergence) | Rape plant response rating [15, 23] | Sugarbeets plant response rating [16, 17] | Sugarbeets plant response rating (0 to 10 scale) [16, 18] | Sugarbeets plant response rating [16, 19] | Plant response rating, Sugarbeets [16, 20] | Sugarbeets plant response rating [16, 21] | Sugarbeets plant response rating [16, 22] | Plant response rating (0 to 10; 0 is no effect, 10 is complete control), Sugarbeets ([16]; Rate 250 g/ha, Postemergence) | Sugarbeets plant response rating [16, 23]
